Activity calls are given as the source filed them.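 The calls were made as follows: active = compounds giving half or more protection of infected cells from virus-caused growth loss, again on retest; inactive = the rest.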
System: CEM cells HIV-1 protection, formazan growth assay
Experiment: NCI AIDS Antiviral Assay
Settings: for IC50: measured here: growth of uninfected CEM cells
Outline: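 Soluble formazan readout of cell growth; CEM cells ± HIV-1; 5 drug concs. ≥50% protection → retest; ≥50% again = moderately active; reproducible 100% = confirmed active.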

## CCN(CC)C(=O)N1CCN(C=S)CC1
  EC50: > 794 µM
  IC50: > 794 µM

## O=c1c(-c2ccccc2)c(S)sc(S)c1-c1ccccc1
  EC50: > 200 µM
  IC50: > 200 µM

## CC1(c2nc3ccccc3[nH]2)CCC(CO)C(C)(C)O1 (centres undefined)
  EC50: > 200 µM
  IC50: > 200 µM

## Cc1nnc(N/N=C(/C(=O)C(C#N)c2ccccc2)C(C#N)c2ccccc2)n1N (centres undefined)
  EC50: > 224 µM
  IC50: 38.9 µM

## CC(C)C1=CC2=CCC3C(C)(CN)CCCC3(C)C2CC1CCN (centres undefined)
  EC50: > 100 µM
  IC50: 1.48 µM

## COC(=O)/N=[N+](\[O-])C(c1ccc(OC)cc1)C1CCCCC1 (centres undefined)
  EC50: > 200 µM
  IC50: 5.62 µM

## CC1(C)CCCC2(C)C1CCC1(C)OC3=CC(=O)C(O)=CC3=CC12 (centres undefined)
  EC50: > 30.2 µM
  IC50: 2.82 µM

## O=C1C2C(C(=O)N1c1ccccc1)C1(Br)c3ccccc3C2(Br)C2C(=O)N(c3ccccc3)C(=O)C21 (centres undefined)
  outcome: inactive

## COc1cccc(/C=C/C(=O)c2ccccc2)c1O
  EC50: 14.5 µM
  IC50: 112 µM

## COC(CN(C(=O)c1ccccc1)C1CCC2(SCCS2)c2[nH]c3ccccc3c21)OC (centres undefined)
  EC50: > 200 µM
  IC50: 14.5 µM

## CCN1C[C@]2(C)CC[C@H](OC)C34C5C[C@@H]6[C@@H](OC)C[C@@](OC)(C5[C@H]6OCc5ccccc5)C(C13)[C@H](OC(C)=O)[C@@H]42 (some centres undefined)
  EC50: > 200 µM
  IC50: 105 µM

## O=C(O)/C(=C(/c1ccccc1)c1ccc(Cl)cc1)c1ccccc1
  EC50: > 107 µM
  IC50: 89.1 µM

## COc1cc(C2c3cc4c(c(O)c3C[C@H]3COC(=O)[C@@H]23)OCO4)cc(OC)c1OC (some centres undefined)
  EC50: > 200 µM
  IC50: 0.468 µM

## CCOC(=O)CC1NC(=O)CS1 (centres undefined)
  EC50: > 138 µM
  IC50: > 138 µM

## CC(C)c1ccc(C(c2c(O)c3ccccc3oc2=O)c2c(O)c3ccccc3oc2=O)cc1
  EC50: > 200 µM
  IC50: 30.2 µM

## O=C(O)Cn1ccc(=O)c2cc([N+](=O)[O-])ccc21
  EC50: > 200 µM
  IC50: > 200 µM

## C[C@]12CCC3[C@@H](CC[C@@H]4/C(=N\O)C(=O)/C(=N\O)C[C@]34C)C1C/C(=N\O)C2=O (some centres undefined)
  outcome: inactive

## COC(=O)C1CCCCCCCCCCC12SCCCS2 (centres undefined)
  EC50: > 200 µM
  IC50: > 200 µM

## COC(=O)C(=O)C(C(=O)C(=O)Nc1cccc(C(C)=O)c1)c1nc2ccccc2[nH]c1=O (centres undefined)
  EC50: > 575 µM
  IC50: 302 µM

## Nc1nc(=Nc2ccccc2)ss1
  outcome: inactive

## N#Cc1sc2c(c1OC(=O)c1ccc(Cl)cc1Cl)c(=O)n(-c1ccccc1)c(=S)n2-c1ccccc1
  EC50: > 200 µM
  IC50: 1.23 µM

## CC(C)/C(Cl)=N\OC(=O)Nc1ccc(F)cc1
  outcome: inactive

## COc1ccc(C2ON(c3ccccc3)CC=C2C)cc1 (centres undefined)
  EC50: > 35.5 µM
  IC50: > 35.5 µM

## C=CCOC(=O)N(C)CC(OC(=O)C(C)(C)C)C1(c2ccc3c(c2)OCO3)C=CC(=O)C=C1 (centres undefined)
  outcome: inactive

## NC(=O)N/N=C1/CC2CCCCC2c2ccccc21 (centres undefined)
  EC50: > 200 µM
  IC50: 34.7 µM

## Cc1nn(C(=O)Cc2ccccc2)c2c1C(c1ccc([N+](=O)[O-])cc1)SC(N)=N2 (centres undefined)
  EC50: 77.6 µM
  IC50: 117 µM

## COC(=O)C1(C)C=CC(=O)C2(C)C1C(O)C1OC3CC(c4ccoc4)C(C)=C3C1(C)C2CC(=O)O (centres undefined)
  EC50: > 490 µM
  IC50: > 490 µM

## Nc1cc(=O)[nH]c(=S)n1-c1ccc(Cl)cc1
  EC50: > 200 µM
  IC50: > 200 µM

## c1ccc(OCc2nn3c(-c4ccccc4)nnc3s2)cc1
  EC50: > 200 µM
  IC50: > 200 µM

## Oc1cc(O)c2c(c1)O[C@H](c1cc(O)c(O)c(O)c1)[C@@H](O)C2
  EC50: > 200 µM
  IC50: 0.603 µM

## CCOC(=O)c1c(-c2ccccc2)csc1N
  EC50: > 123 µM
  IC50: 107 µM

## O=C(/N=C(\c1ccc(F)cc1)c1ccsc1-n1cccc1)Nc1ccccc1
  EC50: > 200 µM
  IC50: 4.9 µM

## O=C(Nc1nc(=S)c2c(ncn2CCOC(=O)c2ccccc2)[nH]1)c1ccccc1
  EC50: > 61.7 µM
  IC50: > 61.7 µM

## CSCCC1OCC2OC(n3ccc(=O)[nH]c3=O)CC2N1O (centres undefined)
  EC50: > 200 µM
  IC50: > 200 µM

## O=C1CC2(CCC(O)(c3cccc4ccccc34)C(C(=O)c3cccc4ccccc34)C2)C(=O)c2ccccc2N1 (centres undefined)
  EC50: > 200 µM
  IC50: 110 µM

## CC1(C)C2CCC(CN)(C2)C1O (centres undefined)
  EC50: > 200 µM
  IC50: > 200 µM

## COc1ccc2[nH]c(S(=O)(=O)N3CC(CCl)c4ccc(N)cc43)cc2c1 (centres undefined)
  EC50: > 0.2 µM
  IC50: 0.102 µM

## O=C(/C=C(\Cl)c1c[nH]c(=O)[nH]c1=O)c1ccccc1
  outcome: inactive

## O=c1[nH]n(Cc2ccccc2Cl)c2ccccc12
  EC50: > 200 µM
  IC50: > 200 µM

## COC(=O)c1cc(C#N)[nH]c1-c1ccc(Br)s1
  EC50: > 200 µM
  IC50: 4.37 µM

## CCOC(=O)C1(C/C=C/CBr)Cc2ccccc2C1=O (centres undefined)
  EC50: > 200 µM
  IC50: 1.66 µM

## COC(=O)C1(COCc2ccccc2)CCCC2OC21 (centres undefined)
  outcome: inactive

## COc1cc(OC)nc(NC(=O)NS(=O)(=O)c2cccc3ncn(C)c(=O)c23)n1
  outcome: inactive

## CC1(C)CC(O)C2=C(O1)C(=O)c1ncccc1C2=O (centres undefined)
  outcome: inactive

— PubChem BioAssay AID179 (DTP/NCI, 2004)
